From US11958861B2, “Spirocyclic lactams as JAK2 V617F inhibitors” (Incyte Corporation, priority 2021, dated 2024)
pIC50: −log10 of the molar value. Structures can show the parent of a compound that is named as a salt.

Assays:
[1] = target: T1, pseudo-kinase domain (JH2, amino-acids 536-812) of human V617F mutant JAK2 (Homo sapiens, UniProt O60674, F794H/V617F/W659A/W777A); test: JAK2 LanthaScreen JH2-V617F Binding Assay; conditions: 1 hour at 25° C.
T1 construct: pseudo-kinase domain (JH2, amino-acids 536-812 with 3 surface mutations W659A, W777A, F794H); purchased BPS Bioscience 79498; host or cells: baculovirus expression system
Outline: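 This is a TR-FRET tracer-displacement format with a 1 h, 25 °C incubation. It combined 0.26 nM baculovirus-expressed biotinylated JH2-V617F, 50 nM fluorescent JAK2-JH2 tracer and 0.25 nM streptavidin-Tb cryptate in 50 mM Tris pH 7.5, 10 mM MgCl2, 5 mM DTT. Background came from 2 mM ATP, and IC50 values were from four-parameter dose-response fits.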

[2] = target: T2, pseudo-kinase domain (JH2, amino-acids 536-812) of human Wild Type JAK2 (Homo sapiens, UniProt O60674, F794H/W659A/W777A); test: JAK2 LanthaScreen JH2-WT Binding Assay; conditions: 1 hour at 25° C.
T2 construct: pseudo-kinase domain (JH2, amino-acids 536-812 with 3 surface mutations W659A, W777A, F794H); purchased BPS Bioscience 79463; host or cells: baculovirus expression system
Outline: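 IC50 values derive from four-parameter fits of LanthaScreen signal, measuring displacement of 50 nM fluorescent tracer from 0.145 nM biotinylated, baculovirus-expressed JH2 (536-812) detected by 0.25 nM streptavidin-Tb. Incubation lasts 1 hour at 25° C, pH 7.5.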

[3] = target: T3, catalytic domain (JH1, amino acids 826-1132) of human JAK2 (Homo sapiens, UniProt O60674); test: JAK2 LanthaScreen JH1 Binding Assay; conditions: 2 hours at 25° C.
T3 construct: catalytic domain (JH1, amino acids 826-1132) of human JAK2; purchased Carna Biosciences 08-445-20N; host or cells: baculovirus expression system
Outline: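 Reaction held 1.5 nM biotinylated FLAG-JAK2 JH1, 50 nM tracer and 0.5 nM streptavidin-Tb in pH 7.5 Tris buffer; 2 mM ATP defined nonspecific binding.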

[4] = target: T4, catalytic domain (JH1, amino acids 808-1132) of human JAK2 (Homo sapiens, UniProt O60674); test: JAK2 HTRF Enzyme Activity Assay; type: biochemical; conditions: ATP 30 μM, read-out: ENZ 30UMATP
T4 construct: catalytic domain (JH1, amino acids 808-1132) of human JAK2; His (N); purchased BPS Bioscience 40450; host or cells: baculovirus expression system
Outline: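 IC50 values come from a four-parameter fit of HTRF signal (Eu-PY20 antibody/streptavidin-APC, EDTA-quenched). Reaction: 0.015 nM N-His JAK2 catalytic domain (baculovirus), 500 nM biotin-peptide, 30 μM or 1 mM ATP, Tris pH 7.5 buffer, 60 min, 25° C.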

T3 sequence (O60674 826-1132): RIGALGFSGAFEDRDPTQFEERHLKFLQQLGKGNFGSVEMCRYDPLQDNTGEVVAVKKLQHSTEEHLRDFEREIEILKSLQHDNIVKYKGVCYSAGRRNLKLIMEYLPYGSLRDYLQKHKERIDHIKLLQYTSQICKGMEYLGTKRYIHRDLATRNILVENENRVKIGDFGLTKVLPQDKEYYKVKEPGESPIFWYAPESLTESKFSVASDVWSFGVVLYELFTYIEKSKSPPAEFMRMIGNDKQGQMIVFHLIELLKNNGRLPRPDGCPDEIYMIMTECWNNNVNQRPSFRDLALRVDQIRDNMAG
T1 sequence (O60674 536-812 V617F/W659A/W777A/F794H): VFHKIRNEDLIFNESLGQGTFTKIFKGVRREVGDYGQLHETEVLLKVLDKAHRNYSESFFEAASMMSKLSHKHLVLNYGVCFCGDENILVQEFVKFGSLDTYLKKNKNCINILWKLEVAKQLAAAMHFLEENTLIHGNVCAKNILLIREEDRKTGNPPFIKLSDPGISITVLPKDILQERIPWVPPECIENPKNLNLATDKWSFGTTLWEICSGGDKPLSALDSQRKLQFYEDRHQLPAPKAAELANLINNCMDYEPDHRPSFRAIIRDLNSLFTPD
T2 sequence (O60674 536-812 W659A/W777A/F794H): as the sequence (O60674 536-812 V617F/W659A/W777A/F794H) above, with F82V counted along it
T4 sequence (O60674 808-1132): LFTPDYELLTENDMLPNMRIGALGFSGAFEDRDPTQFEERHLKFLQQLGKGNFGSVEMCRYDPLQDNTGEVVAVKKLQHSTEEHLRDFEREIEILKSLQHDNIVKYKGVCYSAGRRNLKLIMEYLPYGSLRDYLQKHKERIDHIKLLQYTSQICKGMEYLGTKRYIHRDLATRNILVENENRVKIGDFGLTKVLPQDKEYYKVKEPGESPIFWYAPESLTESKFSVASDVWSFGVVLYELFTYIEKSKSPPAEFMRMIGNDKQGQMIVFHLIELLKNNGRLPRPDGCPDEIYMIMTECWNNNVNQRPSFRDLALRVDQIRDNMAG

SMILES	pIC50 [1]	pIC50 [2]	pIC50 [3]	pIC50 [4]
CN1C(=O)C2(CCN(C3(CC#N)CCC3)CC2)c2c1cnc1[nH]c(-c3cnn(CCN4CCOCC4)c3)c(-c3ccc4c(cnn4C)c3)c21 [Example 38, 2-(1-(6-Methyl-1-(1-methyl-1H-indazol-5-yl)-2-(1-(2-morpholinoethyl)-1H-pyrazol-4-yl)-7-oxo-6,7-dihydro-3H-spiro[dipyrrolo[2,3-b:3′,2′-d]pyridine-8,4′-piperidin]-1′-yl)cyclobutyl)acetonitrile, trifluoroacetate salt]	≥ 7.00	≥ 7.00	6.30 to 7.00	≥ 7.00
CN1C(=O)C2(CCN(C3(CC#N)CCC3)CC2)c2c1cnc1[nH]c(-c3cnn(CC4CC4)c3)c(-c3ccc4c(cnn4C)c3)c21 [Example 39, 2-(1-(2-(1-(Cyclopropylmethyl)-1H-pyrazol-4-yl)-6-methyl-1-(1-methyl-1H-indazol-5-yl)-7-oxo-6,7-dihydro-3H-spiro[dipyrrolo[2,3-b:3′,2′-d]pyridine-8,4′-piperidin]-1′-yl)cyclobutyl)acetonitrile, trifluoroacetate salt]	≥ 7.00	≥ 7.00	6.30 to 7.00	6.30 to 7.00
CN1C(=O)C2(CCN(C3(CC#N)CCC3)CC2)c2c1cnc1[nH]c(-c3cn(C)nc3C3CC3)c(-c3ccc4c(cnn4C)c3)c21 [Example 40, 2-(1-(2-(3-Cyclopropyl-1-methyl-1H-pyrazol-4-yl)-6-methyl-1-(1-methyl-1H-indazol-5-yl)-7-oxo-6,7-dihydro-3H-spiro[dipyrrolo[2,3-b:3′,2′-d]pyridine-8,4′-piperidin]-1′-yl)cyclobutyl)acetonitrile, trifluoroacetate salt]	≥ 7.00	≥ 7.00	< 5.60	< 5.60
CC(=O)N1CCC(n2cc(-c3[nH]c4ncc5c(c4c3-c3ccc4c(cnn4C)c3)C3(CCN(C4(CC#N)CCC4)CC3)C(=O)N5C)cn2)CC1 [Example 41, 2-(1-(2-(1-(1-Acetylpiperidin-4-yl)-1H-pyrazol-4-yl)-6-methyl-1-(1-methyl-1H-indazol-5-yl)-7-oxo-6,7-dihydro-3H-spiro[dipyrrolo[2,3-b:3′,2′-d]pyridine-8-4′-piperidin]-1′-yl)cyclobutyl)acetonitrile, trifluoroacetate salt]	≥ 7.00	≥ 7.00	6.30 to 7.00	≥ 7.00
CN1C(=O)C2(CCN(C3(CC#N)CCC3)CC2)c2c1cnc1[nH]c(-c3ccn(C)c3)c(-c3ccc4c(cnn4C)c3)c21 [Example 42, 2-(1-(6-Methyl-1-(1-methyl-1H-indazol-5-yl)-2-(1-methyl-IH-pyrrol-3-yl)-7-oxo-6,7-dihydro-3H-spiro[dipyrrolo[2,3b:3′,2′-d]pyridine-8,4′-piperidin]-1′-yl)cyclobutyl)acetonitrile, trifluoroacetate salt]	≥ 7.00	≥ 7.00	5.90 to 6.30	6.30 to 7.00
CN1C(=O)C2(CCN(C3(CC#N)CCC3)CC2)c2c1cnc1[nH]c(-c3cnn4c3CCCC4)c(-c3ccc4c(cnn4C)c3)c21 [Example 43, 2-(1-(6-Methyl-1-(1-methyl-1H-indazol-5-yl)-7-oxo-2-(4,5,6,7-tetrahydropyrazolo[1,5-a]pyridin-3-yl)-6,7-dihydro-3H-spiro[dipyrrolo[2,3-b:3′,2′-d]pyridine-8,4′-piperidin]-1′-yl)cyclobutyl)acetonitrile]	≥ 7.00	≥ 7.00	< 5.60	< 5.60
COC(C)(C)Cn1cc(-c2[nH]c3ncc4c(c3c2-c2ccc3c(cnn3C)c2)C2(CCN(C3(CC#N)CCC3)CC2)C(=O)N4C)cn1 [Example 44, 2-(1-(2-(1-(2-Methoxy-2-methylpropyl)-1H-pyrazol-4-yl)-6-methyl-1-(1-methyl-1H-indazol-5-yl)-7-oxo-6,7-dihydro-3H-spiro[dipyrrolo[2,3-b:3′,2′-d]pyridine-8,4′-piperidin]-1′-yl)cyclobutyl)acetonitrile, trifluoroacetate salt]	≥ 7.00	≥ 7.00	6.30 to 7.00	6.30 to 7.00
O=C(O)C(F)(F)F.[2H]C([2H])([2H])n1ccc2cc(-c3c(-c4cnn(CCOC)c4)[nH]c4ncc5c(c34)C3(CCN(C4(CC#N)CCC4)CC3)C(=O)N5C)ccc21 [Example 46, 2-(1-(2-(1-(2-Methoxyethyl)-1H-pyrazol-4-yl)-6-methyl-1-(1-(methyl-d3)-1H-indol-5-yl)-7-oxo-6,7-dihydro-3H-spiro[dipyrrolo[2,3-b:3′,2′-d]pyridine-8,4′-piperidin]-1′-yl)cyclobutyl)acetonitrile, trifluoroacetate salt]	≥ 7.00	≥ 7.00	5.90 to 6.30	5.90 to 6.30
COc1c(F)cc(-c2c(-c3cnn(CC(C)(C)O)c3)[nH]c3ncc4c(c23)C2(CCN(C3(CC#N)CCC3)CC2)C(=O)N4C)cc1F [Example 47, 2-(1-(1-(3,5-Difluoro-4-methoxyphenyl)-2-(1-(2-hydroxy-2-methylpropyl)-1H-pyrazol-4-yl)-6-methyl-7-oxo-6,7-dihydro-3H-spiro[dipyrrolo[2,3-b:3′,2′-d]pyridine-8,4′-piperidin]-1′-yl)cyclobutyl)acetonitrile, trifluoroacetate salt]	≥ 7.00	≥ 7.00	< 5.60	< 5.60
CN1C(=O)C2(CCN(C3(CC#N)CCC3)CC2)c2c1cnc1[nH]c(-c3cnn(CC(C)(C)O)c3)c(-c3cc4cnccc4s3)c21 [Example 48, 2-(1-(2-(1-(2-Hydroxy-2-methylpropyl)-1H-pyrazol-4-yl)-6-methyl-7-oxo-1-(thieno[3,2-c]pyridin-2-yl)-6,7-dihydro-3H-spiro[dipyrrolo[2,3-b:3′,2′-d]pyridine-8,4′-piperidin]-1′-yl)cyclobutyl)acetonitrile, trifluoroacetate salt]	≥ 7.00	≥ 7.00	6.30 to 7.00	6.30 to 7.00
CN1C(=O)C2(CCN(C3(CC#N)CCC3)CC2)c2c1cnc1[nH]c(-c3cnn(CC(C)(C)O)c3)c(-c3ccc(C4CC4)cc3)c21 [Example 49, 2-(1-(1-(4-Cyclopropylphenyl)-2-(1-(2-hydroxy-2-methylpropyl)-1H-pyrazol-4-yl)-6-methyl-7-oxo-6,7-dihydro-3H-spiro[dipyrrolo[2,3-b:3′,2′-d]pyridine-8,4′-piperidin]-1′-yl)cyclobutyl)acetonitrile, trifluoroacetate salt]	≥ 7.00	≥ 7.00	< 5.60	< 5.60
CN1C(=O)C2(CCN(C3(CC#N)CCC3)CC2)c2c1cnc1[nH]c(-c3cnn(CC(C)(C)O)c3)c(-c3ccc(OC(F)(F)F)cc3)c21 [Example 50, 2-(1-(2-(1-(2-Hydroxy-2-methylpropyl)-1H-pyrazol-4-yl)-6-methyl-7-oxo-1-(4-(trifluoromethoxy)phenyl)-6,7-dihydro-3H-spiro[dipyrrolo[2,3-b:3′,2′-d]pyridine-8,4′-piperidin]-1′-yl)cyclobutyl)acetonitrile, trifluoroacetate salt]	≥ 7.00	≥ 7.00	< 5.60	< 5.60
CN1C(=O)C2(CCN(C3(CC#N)CCC3)CC2)c2c1cnc1[nH]c(-c3cnn(CC(C)(C)O)c3)c(-c3ccc(C(F)(F)F)cc3)c21 [Example 52, 2-(1-(2-(1-(2-Hydroxy-2-methylpropyl)-1H-pyrazol-4-yl)-6-methyl-7-oxo-1-(4-(trifluoromethyl)phenyl)-6,7-dihydro-3H-spiro[dipyrrolo[2,3-b:3′,2′-d]pyridine-8,4′-piperidin]-1′-yl)cyclobutyl)acetonitrile, trifluoroacetate salt]	≥ 7.00	≥ 7.00	< 5.60	< 5.60
CCS(=O)(=O)N1CC2(C1)CC1(C2)C(=O)N(C)c2cnc3[nH]c(-c4cnn(C(C)C)c4)c(-c4ccc5c(cnn5C)c4)c3c21 [Example 54, 1-(Ethylsulfonyl)-2″-(1-isopropyl-1H-pyrazol-4-yl)-6″-methyl-1″-(1-methyl-1H-indazol-5-yl)-3″,6″-dihydro-7″H-dispiro[azetidine-3,1′-cyclobutane-3′,8″-dipyrrolo[2,3-b:3′,2′-d]pyridin]-7″-one, trifluoroacetate salt]	≥ 7.00	≥ 7.00	5.90 to 6.30	5.90 to 6.30
